Measurements reported in patent US20250382631A1, “PROTAC-CID SYSTEMS FOR USE IN MULTIPLEX GENE REGULATION” (William Marsh Rice University, priority 2022, published 2025).

Experiments:
[1] = system: pUAS-2-driven Fluc in HEK293T cells co-infected with Virus a and Virus b; assay: AAV infection of HEK293T cells, luciferase bioluminescence; type: cell-based, human; details: 100 nM MZ1, three days post-infection, FIG. 4B
Procedure: AAV infection on HEK293T cells. Before infection, HEK293T cells were seeded into 96 well plates (Corning no. 3610). When the confluency reaching 50%, 1 μL of each purified AAV virus (Virus a and Virus b in FIGS. 4 and 19) were added into the supernatant of HEK293T cells. 100 nM of MZ1 or DMSO was added into the supernatant. Three days post-infection, cells with 80 μL medium were treated with 40 μL lysis buffer (500 mM DTT, 10 mM coenzyme A, 100 mM ATP, 80 mg/mL D-luciferin, Triton lysis buffer (0.1082 M Tris-HCl, 0.0419 M Tris-Base, 75 mM NaCl, 3 mM MgCl2)). To lysis the cells Plate was shaken by plate reader Infinite M200 (TECAN) with 20 seconds in “Orbital” mode with frequency of 432 rpm and Amplitude of 1 mm. Relative light units of luminescence was recorded by plate reader Infinite M200 (TECAN) with 1000 ms integration time using Megellan v1.7 (TECAN).

[2] = system: Cre-mediated GFP expression in HEK293T cells; assay: Inducible Cre site-specific DNA recombination, LoxP-STOP-LoxP-GFP reporter; type: cell-based, human
Procedure: (§1) Fluorescence assay using flow cytometry analysis. Cells were treated with 0.05% Trpsin EDTA (Thermo Fisher Scientific no. 25300054) or TrypLE (Thermo Fisher Scientific no. 12605028) after transfection and centrifuged at 3000 g for 5 min. Supernatant was removed and the cell pellet was resuspended with 200 μL phosphate buffered saline (PBS) without calcium and magnesium (Thermo Fisher Scientific no. 10010023). Cells were transferred into 12×75 mm flow tubes (Global Scientific no. 110410). Cells were analyzed by MA900 flow cytometry (SONY). 405 nm laser (FL6 filter) was used for testing the BFP channel. 488 nm (FL1 filter) was used for testing the EYFP and GFP channel. Automated alignment using Automatic Setup Beads kit (SONY no. LE-B3001) is performed before running samples. In FIGS. 3A, 3B, and 17, experiments were performed under 2% FSC, 17% BSC, 24% FL1. In FIG. 18, experiments were performed under 2% FSC, 17% BSC, 27% FL1. All the other experiments were performed under 2% FSC, 17% BSC, 24% FL1 and 27% FL6. Flow cytometry data was processed and analyzed by FlowJo 10. Events were first gated with forward scatter-Area (FSC-A) and side scatter-Area (SSC-A) to select viable cells and remove the debris and dead cells. Cells were further gated with FSC-A and FSC-Height (FSC-H) for selecting single cells. The mean intensity of the reporter fluorescent protein (BFP and EYFP) in viable and single cell populations were calculated by FlowJo 10 as the mean of FL6-A and FL1-A. When calculating the fold change of relative fluorescence units (RFU), the relative fluorescence units of EYFP was calculated by dividing the mean of fluorescence intensity of EYFP with the mean of BFP fluorescence intensity for normalization as the following formula: […]
Transfection and microscopy. […]

[3] = system: mutated Cre gene with 2-bp micro-deletion / GFP expression in HEK293T cells; assay: Inducible prime editing repair of micro-deleted Cre, GFP reporter; type: cell-based, human; details: 100 nM dTAG-13, FIGS. 3F and 18
Procedure: as §1, with “In FIG. 18, experiments were performed under 2% FSC, 17% BSC, 27% FL1. All the other experiments were performed under 2% FSC, 17% BSC, 24% FL1 and 27% FL6.” left out, “Events were first gated with forward scatter-Area (FSC-A) and side scatter-Area (SSC-A) to select viable cells and remove the debris and dead cells. Cells were further gated with FSC-A and FSC-Height (FSC-H) for selecting single cells.” left out

wild-type FKBP12 = wild-type FKBP12 (Homo sapiens, UniProt P62942); details: refs (32, 36); cited from earlier work
wild-type FKBP12, sequence (P62942 whole entry, species assumed): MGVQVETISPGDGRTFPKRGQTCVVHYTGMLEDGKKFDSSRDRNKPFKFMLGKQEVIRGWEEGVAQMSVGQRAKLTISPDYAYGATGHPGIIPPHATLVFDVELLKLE

Cc1ncsc1-c1ccc(CNC(=O)[C@@H]2C[C@@H](O)CN2C(=O)[C@@H](NC(=O)COCCOCCOCCNC(=O)C[C@@H]2N=C(c3ccc(Cl)cc3)c3c(sc(C)c3C)-n3c(C)nnc32)C(C)(C)C)cc1 [MZ1]
increase in luciferase bioluminescence intensity [1]: more than 60 fold

CC[C@H](C(=O)N1CCCC[C@H]1C(=O)O[C@H](CCc1ccc(OC)c(OC)c1)c1ccccc1OCC(=O)NCCCCCCOc1cccc2c1C(=O)N(C1CCC(=O)NC1=O)C2=O)c1cc(OC)c(OC)c(OC)c1 (some centres unmarked) [dTAG-13]
GFP signal, two-layer genetic circuit driving Cre ([2]; 100 nM dTAG-13 or 1 μM dBRD9, 2 days, FIGS. 3A and 17): strong GFP signal | GFP expression, three-layer circuit (Dre, Rox-STOP-Rox-Cre) ([2]; FIG. 3B): robust GFP expression only in the presence of dTAG-13 | increase in GFP expression (prime editing repair of micro-deleted Cre) [3]: more than 25 fold | degradation of wild-type FKBP12 (wild-type FKBP12): do not degrade wild-type FKBP12
